Assay results reported in patent US12077503B2, “Substituted cyclic amides and their use as herbicides” (FMC CORPORATION, priority 2015, dated 2024).

Tests used:
Format in all cases: in vivo
[1] = tested on: barnyardgrass (Echinochloa crus-galli); test: Test G Pre-Emergence Protocol; conditions: Echinochloa crus-galli, pre-emergence, 312 h, evaluated after 13 days
Outline: (§1)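 Herbicidal effect was rated 13 days post-application on a scale where 100 equals total damage. Spraying took place the day after sowing, using 15.625, 62.5 or 250 g/ha of compound in a 50:50 acetone/water solution with 0.5% Tween 20.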

corn (Zea mays) [2] = test: Test G Pre-Emergence Protocol; conditions: Zea mays, pre-emergence, 312 h, evaluated after 13 days
Outline: as §1

[3] = tested on: giant foxtail (Setaria faberi); test: Test G Pre-Emergence Protocol; conditions: Setaria faberi, pre-emergence, 312 h, evaluated after 13 days
Outline: as §1

[4] = tested on: ivy-leaved morning glory (Ipomoea hederacea); test: Test G Pre-Emergence Protocol; conditions: Ipomoea, pre-emergence, 312 h, evaluated after 13 days
Outline: as §1

[5] = tested on: redroot pigweed (Amaranthus retroflexus); test: Test G Pre-Emergence Protocol; conditions: Amaranthus retroflexus, pre-emergence, 312 h, evaluated after 13 days
Outline: as §1

[6] = tested on: velvetleaf (Abutilon theophrasti); test: Test G Pre-Emergence Protocol; conditions: Abutilon theophrasti, pre-emergence, 312 h, evaluated after 13 days
Outline: as §1

[7] = tested on: barnyardgrass (Echinochloa crus-galli); test: Test G Post-Emergence Protocol; conditions: Echinochloa crus-galli, post-emergence, 312 h, read-out: Barnyardgrass damage rating
Outline: (§2)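 Scores run 0 (no damage) to 100 (total damage) and were taken 13 days after spraying. Plants had been raised in pots for 8 days under glasshouse control (24/16 °C, 14 h photoperiod, 65% humidity) and then treated at 15.625, 62.5 or 250 g/ha.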

corn (Zea mays) [8] = test: Test G Post-Emergence Protocol; conditions: Zea mays, post-emergence, 312 h, read-out: Corn damage rating
Outline: as §2

[9] = tested on: giant foxtail (Setaria faberi); test: Test G Post-Emergence Protocol; conditions: Setaria faberi, post-emergence, 312 h, read-out: Foxtail, Giant damage rating
Outline: as §2

[10] = tested on: ivy-leaved morning glory (Ipomoea hederacea); test: Test G Post-Emergence Protocol; conditions: Ipomoea, post-emergence, 312 h, read-out: Morningglory, Ivy-leaved damage rating
Outline: as §2

[11] = tested on: redroot pigweed (Amaranthus retroflexus); test: Test G Post-Emergence Protocol; conditions: Amaranthus retroflexus, post-emergence, 312 h, read-out: Pigweed, Redroot damage rating
Outline: as §2

[12] = tested on: velvetleaf (Abutilon theophrasti); test: Test G Post-Emergence Protocol; conditions: Abutilon theophrasti, post-emergence, 312 h, read-out: Velvetleaf damage rating
Outline: as §2

[13] = 15.625 g ai/ha, evaluated after 13 days (100=total damage to plant; 0=no damage to plant)
[14] = 62.5 g ai/ha, evaluated after 13 days, 100=total damage to plant, 0=no damage to plant
[15] = 250 g ai/ha, evaluated after 13 days, 100=total damage to plant, 0=no damage to plant

CN1CC(c2ccc(Cl)c([N+](=O)[O-])c2)C(C(=O)Nc2cccc(F)c2F)C1=O (stereo not drawn) [Compound 1685] was tested, and the pest or weed control at 15.625 g/ha ([1]; 15.625 g ai/ha, read-out: Barnyardgrass damage rating (100=total damage to plant; 0=no damage to plant)) was 30%, the pest or weed control at 62.5 g/ha ([1]; 62.5 g ai/ha, 100=total damage to plant, 0=no damage to plant, read-out: Barnyardgrass damage rating) was 70% and the pest or weed control at 250 g/ha ([1]; 250 g ai/ha, read-out: Barnyardgrass damage rating (100=total damage to plant; 0=no damage to plant)) was 80%. The plant injury at 15.625 g/ha (corn (Zea mays) [2]; 15.625 g ai/ha, read-out: Corn damage rating (100=total damage to plant; 0=no damage to plant)) was 0%, the plant injury at 62.5 g/ha (corn (Zea mays) [2]; 62.5 g ai/ha, 100=total damage to plant, 0=no damage to plant, read-out: Corn damage rating) was 0% and the plant injury at 250 g/ha (corn (Zea mays) [2]; 250 g ai/ha, read-out: Corn damage rating (100=total damage to plant; 0=no damage to plant)) was 60%. For the same molecule, the pest or weed control at 15.625 g/ha ([3]; 15.625 g ai/ha, read-out: Foxtail, Giant damage rating (100=total damage to plant; 0=no damage to plant)) was 40%, the pest or weed control at 62.5 g/ha ([3]; 62.5 g ai/ha, 100=total damage to plant, 0=no damage to plant, read-out: Foxtail, Giant damage rating) was 70% and the pest or weed control at 250 g/ha ([3]; 250 g ai/ha, read-out: Foxtail, Giant damage rating (100=total damage to plant; 0=no damage to plant)) was 90%. The pest or weed control at 15.625 g/ha ([4]; 15.625 g ai/ha, read-out: Morningglory, Ivy-leaved damage rating (100=total damage to plant; 0=no damage to plant)) was 10%, the pest or weed control at 62.5 g/ha ([4]; 62.5 g ai/ha, 100=total damage to plant, 0=no damage to plant, read-out: Morningglory, Ivy-leaved damage rating) was 20% and the pest or weed control at 250 g/ha ([4]; 250 g ai/ha, read-out: Morningglory, Ivy-leaved damage rating (100=total damage to plant; 0=no damage to plant)) was 30%. It also gave a pest or weed control at 15.625 g/ha ([5]; 15.625 g ai/ha, read-out: Pigweed, Redroot damage rating (100=total damage to plant; 0=no damage to plant)) of 0%, a pest or weed control at 62.5 g/ha ([5]; 62.5 g ai/ha, 100=total damage to plant, 0=no damage to plant, read-out: Pigweed, Redroot damage rating) of 10% and a pest or weed control at 250 g/ha ([5]; 250 g ai/ha, read-out: Pigweed, Redroot damage rating (100=total damage to plant; 0=no damage to plant)) of 60%. The pest or weed control at 15.625 g/ha ([6]; 15.625 g ai/ha, read-out: Velvetleaf damage rating (100=total damage to plant; 0=no damage to plant)) was 10%, the pest or weed control at 62.5 g/ha ([6]; 62.5 g ai/ha, 100=total damage to plant, 0=no damage to plant, read-out: Velvetleaf damage rating) was 10% and the pest or weed control at 250 g/ha ([6]; 250 g ai/ha, read-out: Velvetleaf damage rating (100=total damage to plant; 0=no damage to plant)) was 30%. For the same molecule, the pest or weed control at 15.625 g/ha [7, 13] was 30%, the pest or weed control at 62.5 g/ha [7, 14] was 60% and the pest or weed control at 250 g/ha [7, 15] was 80%. The plant injury at 15.625 g/ha (corn (Zea mays) [8]; [13]) was 10%, the plant injury at 62.5 g/ha (corn (Zea mays) [8]; [14]) was 40% and the plant injury at 250 g/ha (corn (Zea mays) [8]; [15]) was 70%. For the same molecule, the pest or weed control at 15.625 g/ha [9, 13] was 70%, the pest or weed control at 62.5 g/ha [9, 14] was 70% and the pest or weed control at 250 g/ha [9, 15] was 80%. The pest or weed control at 15.625 g/ha [10, 13] was 40%, the pest or weed control at 62.5 g/ha [10, 14] was 30% and the pest or weed control at 250 g/ha [10, 15] was 70%. It also gave a pest or weed control at 15.625 g/ha [11, 13] of 40%, a pest or weed control at 62.5 g/ha [11, 14] of 50% and a pest or weed control at 250 g/ha [11, 15] of 70%. For the same molecule, the pest or weed control at 15.625 g/ha [12, 13] was 10%, the pest or weed control at 62.5 g/ha [12, 14] was 30% and the pest or weed control at 250 g/ha [12, 15] was 60%.
